Test results: paper PMC7159882, “Polyunsaturated fatty acid analogues differentially affect cardiac NaV, CaV, and KV channels through unique mechanisms” (eLife, 2020)

Test system: human induced pluripotent stem cell-derived cardiomyocytes (hiPSC-CM)
Assay: Optical recordings of calcium transients in hiPSC-CM monolayers
Assay type: cell-based
Experimental: Human induced pluripotent stem cell-derived cardiomyocytes (hiPSC-CM) were purchased from AXOL Bioscience. The hiPSC-CM were thawed and plated following the manufacturer’s protocol. Briefly, cells were plated on Matrigel (Corning) pre-coated glass coverslips cultivated in 96-multiwell plates (Falcon). Matrigel was diluted in sterile DMEM/F12 medium (Gibco) (1:130) and incubated for 2 hr at 37°C before plating the cells. hiPSC-CM were cultured at 37°C and 5% CO2. Cultured hiPSC-CM were fed every other day. […]
CaT fluorescence recordings from cell monolayers were recorded using a Leica DM LFS upright microscope. […] Fluorescence signals were passed through the emission filter, collected by a photodiode, and amplified with an Axopatch 200B patch clamp amplifier (Axon Instruments). Calcium fluorescence signals were low-pass Bessell-filtered (Frequency Devices) at 100 Hz, digitized at 1 kHz, and recorded using Clampex 9.2 and analyzed using Clampfit 9.2. […] Since hiPSC-CM were spontaneously beating and at slightly different frequencies between monolayers, the frequency of the action potentials was calculated as the inverse of the time between CaTs. The action potential duration (APD) was measured in the absence and the presence of DHA-Glycine. The APD90 (or the time required to achieve the 90% of repolarization of the CaT) was measured in all the experiments to test the effects of DHA-glycine. […]

CC/C=C\C/C=C\C/C=C\C/C=C\C/C=C\C/C=C\CCC(=O)NCC(=O)O [DHA-glycine, docosahexaenoyl glycine]
CaT APD90c (30 µM, corrected by modified Fridericia's formula, control 472 ± 27 ms, n = 3): 317 ± 9 ms | effect on hiPSC-derived cardiomyocytes at lower doses (doses lower than 30 μM): did not get significant effects at low doses
